Test results published in patent publication US6916660B2, “Fluorescent sensor compounds for detecting saccharides” (North Carolina State University, priority 2002, dated 2005).
Where two headings read alike, the source gives them in different places.

What was measured:
[1] = Binding of fluorescent compounds 7 to sLex in solution (fluorescence intensity change); settings: solution binding studies
Description: Diboronic acid compounds 7 were designed to show significant fluorescence intensity changes upon binding with a complementary carbohydrate. In screening for their binding with the target carbohydrate, sLex, the fluorescence intensity changes of solutions of the compounds upon addition of the carbohydrate were determined. These experiments were conducted in a mixture of methanol and 0.1 M phosphate buffer (pH 7.4) (1:1, v/v). Methanol was used to improve the solubility of the sensor compounds. The concentration of fluorescent sensor compound (7) (specific structures provided in FIG. 1, above) was fixed at 1×10^−5 or 1×10^−6 M, and the concentration of sLex was set at 60 μM.

[2] = Solution binding studies with Lewis Y (data not shown)
HEPG2 cells = assay: Fluorescent labeling of fixed HEPG2 cells expressing sLex (microscopy, densitometry); assay type: cell-based; settings: 1 μM compound
Description: (§1) Cell culture. HEPG2 and COS7 cells were maintained in RPMI media (G. E. Moore et al. (1967) J. Am. Med. Assoc. 199, 519-524) with 10% FBS (GIBCO). HEP3B cells were maintained in RPMI with 10% FBS and 1× sodium pyruvate and 1× non-essential amino acids (GIBCO).
(§2) Fluorescent labeling studies. 6-well plates were seeded with 1×10^6 cells per well and incubated at 37° C. and 5% CO2 for 48 h. The media was removed and cells were washed twice with 1×PBS. The cells were fixed with 1.5 mL of 1:1 methanol/PBS and incubated 20 minutes at 4° C. After incubation, the methanol/PBS solution was removed and cells were washed twice with PBS.
(§3) Diboronic acid compounds 7 were resuspended in 1:1 methanol/PBS and added to wells at 0.5 to 10 μM concentrations. One well was incubated only in methanol/PBS without compound as a negative control. The plates were then incubated in darkness at 4° C. for 45 min. Plates were examined with phase contrast microscopy followed by fluorescent microscopy (blue cube wavelengths 370 nm excitation, 426 nm emission; 20× lens). Plates were photographed using a Nikon DXM1200 digital camera and images captured with the Nikon ACT-1 program (v 2.10). The phase contrast and fluorescent images were then overlaid, organized and labeled using Adobe Photoshop 6.0. The images were quantified with NIH ImageJ 1.28. The units (mean gray value) were subtracted from background, where there are no cells. The fluorescent signal was stable for at least 96 h when cells were maintained in darkness.
(§4) HEPG2, a cell line that selectively expresses sLex on the surface, was selected for examination. To examine the selectivity of the sensor for cell surface sLex, HEP3B and COS7 cells were labeled in parallel. COS7 expresses none of the fucosylated antigens associated with carcinoma progression and HEP3B expresses only the Lewis Y antigen. See B. W. Weston et al. (1992) J. Biol. Chem. 267, 4152-4160; B. W. Weston et al. (1992) J. Biol. Chem. 267, 24575-24584.
(§5) HEPG2 and control cell lines were incubated with compound 7q, while three other diboronic acids (7b, 7d, 7y) were used as controls. […]

HEP3B cells = assay: Fluorescent labeling of fixed HEP3B cells expressing Lewis Y (microscopy, densitometry); assay type: cell-based; settings: 1 μM compound
Description: as §1, §2, §3, §4, §5

[3] = Springsteen et al.; cited from earlier work
[4] = Springsteen et al.; cited from earlier work; remark: listed apart in the source
[5] = Fluorescence titration of sensor compounds with glucose; assay type: binding
Description: (§6) The affinity and selectivity of the fluorescent sensor compounds (7) for glucose were evaluated. Specifically, 2 mL of a solution of each sensor compound (7) in methanol (2×10^−6 M) was mixed with 2 mL of aqueous saccharide phosphate buffer solution (pH 7.4) at various concentrations, and the fluorescence intensity recorded. […] This represents a 43- and 49-fold selectivity over fructose and galactose, respectively. In addition, fluorescence enhancement was very large (about 7-fold).

[6] = Fluorescence titration of sensor compounds with fructose; assay type: binding; settings: 50% MeOH/0.1 M phosphate buffer pH 7.4, sensor 1×10^−6 M, 25° C.
Description: as §6

[7] = Fluorescence titration of sensor compounds with galactose; assay type: binding; settings: 50% MeOH/0.1 M phosphate buffer pH 7.4, sensor 1×10^−6 M, 25° C.
Description: as §6

In the case of CN(Cc1ccccc1B(O)O)Cc1c2ccccc2c(CN(C)C(=O)CCc2ccc(CCC(=O)N(C)Cc3c4ccccc4c(CN(C)Cc4ccccc4B(O)O)c4ccccc34)cc2)c2ccccc12 [Compound 7d], the “affinity for sLex in solution” value [1] is reported as “low affinity”, the “affinity for Lewis Y in solution” value [2] is reported as “low affinity” and the “labeling of HEPG2 cells (mean gray value)” value (“labeling of HEPG2 cells” below) (HEPG2 cells) is reported as “did not label HEPG2 or HEP3B”. The “labeling of HEP3B cells (mean gray value)” value (shortened to “labeling of HEP3B cells”) (HEP3B cells) was “did not label HEPG2 or HEP3B”.

In the case of OB(O)c1ccccc1 [PBA, phenylboronic acid], the Ka for fructose [3] is listed as 162 M⁻¹ and the Ka for glucose [4] is listed as 5 M⁻¹.

With CN(Cc1ccccc1B(O)O)Cc1c2ccccc2c(CN(C)C(=O)CCCCC(=O)N(C)Cc2c3ccccc3c(CN(C)Cc3ccccc3B(O)O)c3ccccc23)c2ccccc12 [Compound 7y] the “labeling of HEPG2 cells” value (HEPG2 cells) was “recognized surface sLex and Lewis Y with equal avidity” and the “labeling of HEP3B cells” value (HEP3B cells) was “recognized surface sLex and Lewis Y with equal avidity”.

For CN(Cc1ccccc1B(O)O)Cc1c2ccccc2c(CN(C)C(=O)Cc2ccccc2CC(=O)N(C)Cc2c3ccccc3c(CN(C)Cc3ccccc3B(O)O)c3ccccc23)c2ccccc12 [Compound 7b], the “labeling of HEPG2 cells” value (HEPG2 cells) was “did not recognize sLex on HEPG2 cells”, the “labeling of HEP3B cells” value (HEP3B cells) was “avidly bound Lewis Y-expressing HEP3B cells” and the Ka for glucose ([5]; 50% MeOH/0.1 M phosphate buffer pH 7.4, sensor 1×10^−6 M, 25° C.) was 1472 M⁻¹. For the same compound, the “glucose concentration region of most sensitive fluorescence intensity changes” value ([5]; FIG. 8) was “mM region”, the “selectivity for glucose over fructose” value ([5]; ratio of Ka) was 43 fold and the “selectivity for glucose over galactose” value ([5]; ratio of Ka) was 49 fold. For the same compound, the “improvement in affinity for glucose compared with PBA” value ([5]; versus phenylboronic acid) was “about 300 fold”, the “improvement in selectivity for glucose over fructose compared with PBA” value ([5]; versus phenylboronic acid) was “about 1400 fold” and the Ka for fructose [6] was 34 M⁻¹. For the same compound, the Ka for galactose [7] was 30 M⁻¹.
